Results taken from ChEMBL document CHEMBL1201862, “PubChem BioAssay data set” (2004).
Calls of active or inactive are those of the source.

Key:
[1] = biological target: T1, DNA repair protein RAD52 homolog (Homo sapiens, UniProt P43351); assay type: functional, biochemical
T1 sequence (P43351 whole entry): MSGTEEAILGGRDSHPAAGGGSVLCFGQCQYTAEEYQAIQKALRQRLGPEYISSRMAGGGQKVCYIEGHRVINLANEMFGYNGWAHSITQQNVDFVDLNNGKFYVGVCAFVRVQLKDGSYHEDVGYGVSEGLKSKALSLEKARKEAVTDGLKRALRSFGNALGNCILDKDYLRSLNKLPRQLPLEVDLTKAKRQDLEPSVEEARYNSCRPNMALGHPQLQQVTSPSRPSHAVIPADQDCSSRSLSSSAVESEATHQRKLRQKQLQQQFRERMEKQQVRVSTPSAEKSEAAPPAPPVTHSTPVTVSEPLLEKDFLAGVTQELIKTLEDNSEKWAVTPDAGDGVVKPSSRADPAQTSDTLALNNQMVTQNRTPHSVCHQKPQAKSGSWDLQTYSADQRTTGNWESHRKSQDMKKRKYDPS

[2] = inhibitors of clade B AD8 Env fusion, dose response, cell-based, cherry-pick (AID 652062); assay type: functional;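 also: luciferase signal from cell-cell fusion driven by HIV-1 clade B AD8 Env; potency is for inhibitors of fusion seen as a drop in luminescence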
[3] = inhibitors of HIV Env-driven cell fusion, dose response, cherry-pick (AID 652057); assay type: functional, cell-based
[4] = off-target signal loss in HeLa-CEM21 co-culture – HeLa F-luc CTL cells, cherry-picked, counter-screen for HIV-1 Env fusion inhibitor project, dose response (AID 652040); assay type: functional, cell-based;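 also: potency for signal decrease marking cytotoxic or nonspecific inhibition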
[5] = ZM109 Env clade C HIV-1 fusion inhibitors, dose response, HeLa effector, CEM target cells, luciferase, cherry-pick (AID 652058); assay type: functional, cell-based
[6] = biological target: T2, Sentrin-specific protease 8 (Homo sapiens, UniProt Q96LD8); assay type: functional
T2 sequence (Q96LD8 whole entry): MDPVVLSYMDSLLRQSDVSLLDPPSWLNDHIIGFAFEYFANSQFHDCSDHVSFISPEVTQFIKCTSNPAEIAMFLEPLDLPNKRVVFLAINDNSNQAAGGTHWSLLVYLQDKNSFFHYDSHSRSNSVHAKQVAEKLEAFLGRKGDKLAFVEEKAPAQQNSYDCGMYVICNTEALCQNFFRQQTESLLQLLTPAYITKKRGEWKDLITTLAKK

[7] = biological target: T2, Sentrin-specific protease 8; assay type: functional; remark: listed apart in the source
Genome polyprotein = Genome polyprotein (dengue virus type 2, UniProt P29990); test: Dengue-2 NS5 methyltransferase inhibitors, primary screen, biochemical, confirmation dose response (AID 588689); assay type: functional
Sequence of Genome polyprotein (P29990 2492-3391 limits assumed): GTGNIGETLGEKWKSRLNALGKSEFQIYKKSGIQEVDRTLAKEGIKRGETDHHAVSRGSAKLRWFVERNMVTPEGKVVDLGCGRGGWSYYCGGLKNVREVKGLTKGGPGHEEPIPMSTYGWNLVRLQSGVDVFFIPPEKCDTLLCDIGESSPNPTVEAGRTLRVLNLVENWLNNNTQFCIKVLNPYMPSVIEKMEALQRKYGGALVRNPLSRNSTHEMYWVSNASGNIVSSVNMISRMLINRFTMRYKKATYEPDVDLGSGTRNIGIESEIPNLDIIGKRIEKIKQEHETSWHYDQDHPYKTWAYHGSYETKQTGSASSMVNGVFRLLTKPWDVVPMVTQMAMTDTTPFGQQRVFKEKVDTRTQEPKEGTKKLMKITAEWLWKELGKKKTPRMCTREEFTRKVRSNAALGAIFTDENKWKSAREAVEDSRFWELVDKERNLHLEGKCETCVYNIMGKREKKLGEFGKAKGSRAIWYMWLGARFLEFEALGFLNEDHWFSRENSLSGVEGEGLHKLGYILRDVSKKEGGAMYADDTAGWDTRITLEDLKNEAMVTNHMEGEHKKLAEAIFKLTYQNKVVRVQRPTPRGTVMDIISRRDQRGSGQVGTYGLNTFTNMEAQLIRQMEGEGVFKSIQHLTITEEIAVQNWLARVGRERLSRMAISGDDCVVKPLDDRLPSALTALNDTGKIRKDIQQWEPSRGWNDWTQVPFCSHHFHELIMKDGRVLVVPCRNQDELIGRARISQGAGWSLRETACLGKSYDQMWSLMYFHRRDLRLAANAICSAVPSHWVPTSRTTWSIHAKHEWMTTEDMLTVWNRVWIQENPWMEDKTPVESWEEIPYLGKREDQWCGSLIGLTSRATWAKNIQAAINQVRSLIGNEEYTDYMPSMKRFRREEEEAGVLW

[8] = Luminescence-based cell-based high throughput dose response assay to identify activators of the DAF-12 from the parasite S. stercoralis (ssDAF-12).; assay type: functional
[9] = biological target: T3, Oxysterols receptor LXR-beta (Homo sapiens, UniProt P55055); test: LXR agonists, Gal4 luciferase reporter, dose response, counter-screen for ssDAF-12 agonist project, cell-based, luminescence, HEK293, S. stercoralis campaign (AID 720737); assay type: functional; conditions: read-out: IC50 (the source's name)
T3 sequence (P55055 whole entry): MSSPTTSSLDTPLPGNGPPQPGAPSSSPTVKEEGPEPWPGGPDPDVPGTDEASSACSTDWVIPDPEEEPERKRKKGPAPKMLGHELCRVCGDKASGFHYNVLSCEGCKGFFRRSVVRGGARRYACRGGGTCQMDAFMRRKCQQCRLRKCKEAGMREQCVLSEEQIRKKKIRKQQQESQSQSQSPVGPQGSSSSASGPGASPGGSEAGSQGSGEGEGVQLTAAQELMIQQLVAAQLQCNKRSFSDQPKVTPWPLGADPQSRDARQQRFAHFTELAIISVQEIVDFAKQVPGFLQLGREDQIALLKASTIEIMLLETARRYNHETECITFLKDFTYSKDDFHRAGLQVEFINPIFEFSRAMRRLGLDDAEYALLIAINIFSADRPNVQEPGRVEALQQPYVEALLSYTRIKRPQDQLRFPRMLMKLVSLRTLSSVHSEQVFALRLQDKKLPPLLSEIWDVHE

Aminopeptidase N = biological target: T4, Aminopeptidase N (Plasmodium falciparum FcB1/Columbia, UniProt O96935); test: P. falciparum M1AAP inhibitors, biochemical, fluorogenic H-Leu-NHMec substrate, 1536-well (AID 1445); design: species or system Plasmodium falciparum 3D7, 3D7
T4 sequence (O96935 whole entry): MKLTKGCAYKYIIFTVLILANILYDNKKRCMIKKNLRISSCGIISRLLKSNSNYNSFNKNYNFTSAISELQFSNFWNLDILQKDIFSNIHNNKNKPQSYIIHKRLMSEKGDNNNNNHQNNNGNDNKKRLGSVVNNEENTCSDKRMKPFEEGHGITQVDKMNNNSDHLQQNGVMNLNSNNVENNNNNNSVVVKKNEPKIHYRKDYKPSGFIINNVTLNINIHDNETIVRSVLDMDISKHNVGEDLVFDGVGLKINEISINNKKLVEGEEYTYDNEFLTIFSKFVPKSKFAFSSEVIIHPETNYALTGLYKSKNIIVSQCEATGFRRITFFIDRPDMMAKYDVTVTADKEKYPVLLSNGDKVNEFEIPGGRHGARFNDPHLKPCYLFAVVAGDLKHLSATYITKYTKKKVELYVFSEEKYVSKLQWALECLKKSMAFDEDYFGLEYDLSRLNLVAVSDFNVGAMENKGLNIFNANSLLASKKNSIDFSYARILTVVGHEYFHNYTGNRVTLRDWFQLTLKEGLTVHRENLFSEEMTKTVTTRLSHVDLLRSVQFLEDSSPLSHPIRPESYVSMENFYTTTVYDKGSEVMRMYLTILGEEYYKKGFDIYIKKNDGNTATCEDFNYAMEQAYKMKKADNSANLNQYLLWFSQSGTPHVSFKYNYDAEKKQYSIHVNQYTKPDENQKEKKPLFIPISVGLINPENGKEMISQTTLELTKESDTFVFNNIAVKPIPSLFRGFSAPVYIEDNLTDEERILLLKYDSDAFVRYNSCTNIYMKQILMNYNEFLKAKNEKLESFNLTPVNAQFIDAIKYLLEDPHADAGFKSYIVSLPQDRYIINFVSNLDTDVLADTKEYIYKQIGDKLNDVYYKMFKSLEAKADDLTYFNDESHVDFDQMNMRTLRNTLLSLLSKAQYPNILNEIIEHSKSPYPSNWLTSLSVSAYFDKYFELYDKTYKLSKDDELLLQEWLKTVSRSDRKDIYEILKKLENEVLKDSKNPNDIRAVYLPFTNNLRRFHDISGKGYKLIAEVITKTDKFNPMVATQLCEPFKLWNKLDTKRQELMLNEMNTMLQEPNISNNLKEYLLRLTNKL

Bcl-2-like protein 10 = biological target: T5, Bcl-2-like protein 10 (Homo sapiens, UniProt Q9HD36); test: displacers of TR3 peptide from Bcl-B, primary screen, selectivity assay for Bfl-1 inhibitor project, biochemical, fluorescence polarization, FITC-TR3 peptide (AID 748);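 also: fluorescence polarization from a fluorescein-labelled TR3 peptide binding purified Bcl-B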
T5 sequence (Q9HD36 whole entry): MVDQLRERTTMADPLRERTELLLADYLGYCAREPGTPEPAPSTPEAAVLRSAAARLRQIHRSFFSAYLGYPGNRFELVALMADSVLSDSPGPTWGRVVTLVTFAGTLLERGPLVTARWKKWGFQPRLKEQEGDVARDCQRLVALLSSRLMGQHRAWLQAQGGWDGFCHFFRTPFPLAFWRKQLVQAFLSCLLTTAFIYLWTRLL

[10] = Luminescence Cell-Based Dose Response to Identify Activators of Luciferase Translation or Activity in H4-C Neuroglioblastoma Cells. [Related pubchem assays: 1829 (Project Summary), 1814 (Primary HTS)]; assay type: functional
[11] = Luminescence Cell-Based Dose Confirmation to Identify Activators of 5'UTR Stem-Loop Driven Alpha-Synuclein mRNA Translation in H4 Neuroglioblastoma Cells. [Related pubchem assays: 1829 (Project Summary), 1814 (Primary HTS)]; assay type: functional
[12] = Luminescence Cell-Based Dose Response HTS to Identify Activators of Luciferase Translation or Activity in H4 […] Cells. [Related pubchem assays: 1829 (Project Summary), 1814 (Primary HTS)]; assay type: functional
[13] = Luminescence Cell-Based Dose Response to Identify Activators of 5'UTR Stem-Loop Driven Prion Protein mRNA Translation in H4-C Neuroglioblastoma Cells. [Related pubchem assays: 1829 (Project Summary), 1814 (Primary HTS)]; assay type: functional

In the case of `CCOC(=O)N1CCN(C(S)=Nc2ccc3nc(N4CCN(CC)CC4)cc(C)c3c2)CC1`, the AC50 [1] is reported as 15 µM (active).

With `COc1ccc([C@@H]2[C@@H]3C(=O)N(C(C)(C)C)C(=O)[C@@H]3[C@]3(CC(C)C)C(=O)N(c4cccc(Br)c4)C(=O)N23)cc1` the AC50 [2] was < 260 nM (active), the AC50 [3] was < 260 nM (active) and the AC50 [4] was < 260 nM (active). For the same compound, the AC50 [5] was < 260 nM (active).

For `COC/C=C/C1=CC2=CC(=O)C(C)(OC(=O)c3cnc4ccccc4n3)C(=O)C2=CN1C1CC1` (stereo unspecified), the IC50 [6] was 16.6 µM (active), the IC50 [7] was 6.36 µM (active) and the IC50 (Genome polyprotein) was > 100 µM (active).

In the case of `COc1ccc(CSc2nnc3nc(O)cc(N)n23)cc1`, the IC50 [8] is reported as > 67.6 µM (inactive) and the EC50 [9] is reported as > 67.6 µM (inactive).

With `Cc1ccc(S(=O)(=O)Nc2nc3ccc(S(=O)(=O)N4CCCC4)cc3s2)cc1` the IC50 (Aminopeptidase N) was 53.5 µM (active).

With `Cc1cccc(OCC(=O)Nc2ccc(S(=O)(=O)N3CCCC3)cc2)c1` the IC50 (Bcl-2-like protein 10) was > 100 µM (inactive).

With `Cc1nc2c(C(=O)N3CCCCC3)cnn2c(C)c1Cc1ccccc1F` the EC50 [10] was 267 nM (active), the EC50 [11] was > 12 µM (not active) and the EC50 [12] was < 100 nM (active). The EC50 [13] was 570 nM (active).
